Assay results reported in patent US12453709B2, “Compositions and methods for treating autism” (priority 2013, dated 2025).

Columns and labels:
Format in all cases: in vivo, human
[1] = system: male patients diagnosed with autism; assay: Study HT 02-121: ECGs and laboratory evaluations
Description: The first five patients in each cohort were assigned to receive active medication in an open-label fashion. The patients were treated identically to the randomized patients with the following exceptions: (1) blood samples were drawn at baseline and 1 hour after dosing, and at Week 1, 2, 3 and 4 treatment visits 1 hour after dosing to determine the PK of L1-79, (2) EKGs were assessed at baseline and within 3-days prior to the Week 1, 2, 3 and 4 treatment visits as well as the 1-week and 4-week post-dosing follow-up visits, (3) vital signs, physical exams, and ASD assessments were performed at 1-week postdosing visit, (4) blood and urine samples were drawn at baseline and at Week 1, 2, 3 and 4 treatment visits 1 hour after dosing as well as the 1-week and 4-week post-dosing follow-up visits for safety analyses.
Safety was the primary endpoint of the study. The following safety endpoints were assessed: ECGs, physical exams, laboratory evaluations (hematology, chemistry and urinalysis), vital signs, including orthostatic blood pressure, adverse events (AEs) and concomitant medications.
Of note was the observation that half (50%) of the patients on L1-79 developed crystalluria compared to 30% of placebo treated patients. Of those that developed crystalluria during the study, approximately half (50%) had concentrated urine (specific gravity>1.025). […]

[2] = system: male patients diagnosed with autism; assay: Study HT 02-121: Vineland Adaptive Behavior Scales, Second Edition (VABS II); settings: Week 4/LOCF
Description: (§1) This clinical study was a randomized double-blind, placebo-controlled two-cohort, 4-week dose-escalation study that incorporated two open-label treatment groups to assess the safety and efficacy of L1-79 100 mg and 200 mg TID in male patients between the ages of […] years of age diagnosed with autism. The first cohort of 20 patients was comprised of three groups of patients: The first group of five patients received open-label L1-79 100 mg TID and underwent PK and EKG assessments. The remaining two groups in this cohort consisted of 15 patients randomized on a 2:1 basis to receive L1-79 100 mg TID or placebo. The PK and safety data from the open-label L1-79 100 mg TID group was submitted to FDA for review and acceptance before the second cohort was enrolled. The second cohort was procedurally identical to the first. The second cohort of 20 patients was comprised of the same three groups of patients but a dose of 200 mg TID was used instead of 100 mg TID. The key inclusion criteria were as follows: (1) males between 13 and 21 years of age, (2) DSM-5 compliant diagnosis of autism spectrum disorder, confirmed by the Autistic Diagnosis Interview Review (ADIR), and by an ADOS-2 score consistent with a diagnosis of autism, (3) must have been stable on no more than one concomitant medication and no planned changes in psychosocial interventions during the study.
(§2) The primary efficacy endpoint was the determination of the clinical improvement by the investigator as documented by the Clinical Global Impression (CGI) rating scales. Additional efficacy endpoints included: (1) changes from baseline in the Socialization and Communication Domains of the Vineland Adaptive Behavior Scales, Second Edition (VABS II) parent/caregiver rating form, (2) changes from baseline in the ADOS-2 Total Score and subscores, (3) changes in the Social Responsiveness Scale, Second Edition (SRS-2) Total Score and subscales, (4) changes in the ABC-C domains, (5) changes in the Repetitive Behavior Scale-Revised (RBS-R) Total Score and subscales. Given the exploratory design of this study only descriptive statistics were planned.
In the preliminary study, all forms were completed at the study site in the presence of the investigator. In Cohort 1 of the present study, the VABS-II, SRS-2, ABC-C and RBS-R were filled out at home by the patient/patient's families prior to treatment visits and returned at treatment visits in order to expedite the execution of the study.

[3] = system: patients qualified under the DSM-5 definition of autism; assay: Example 4: adverse events and clinical observation
Description: α-methyl-DL tyrosine (AMPT) was administered to 3 patients. This group of patients was qualified under the DSM-5 definition of autism and treated.

[4] = system: male patients diagnosed with autism; assay: Study HT 02-121: Repetitive Behavior Scale-Revised (RBS-R); settings: for RBS-R Compulsive Behavior Mean Change from Baseline / RBS-R Compulsive Behavior Treatment effect versus placebo / RBS-R Compulsive Behavior change, median / RBS-R Restricted Behavior Mean Change from Baseline / RBS-R Restricted Behavior Treatment effect versus placebo / RBS-R Restricted Behavior change, median / RBS-R Ritualistic Behavior Mean Change from Baseline / RBS-R Ritualistic Behavior Treatment effect versus placebo / RBS-R Ritualistic Behavior change, median / RBS-R Sameness Behavior Mean Change from Baseline / RBS-R Sameness Behavior Treatment effect versus placebo / RBS-R Sameness Behavior change, median / RBS-R Self Injurious Behavior Mean Change from Baseline / RBS-R Self Injurious Behavior Treatment effect versus placebo / RBS-R Self Injurious Behavior change, median / RBS-R Stereotypic Behavior Mean Change from Baseline / RBS-R Stereotypic Behavior Treatment effect versus placebo / RBS-R Stereotypic Behavior change, median / RBS-R Total Score Mean Change from Baseline / RBS-R Total Score Treatment effect versus placebo / RBS-R Total Score change, median: Week 4/LOCF
Description: as §1, §2
In the preliminary study, all forms were completed at the study site in the presence of the investigator. In Cohort 1 of the present study, the VABS-II, SRS-2, ABC-C and RBS-R were filled out at home by the patient/patient's families prior to treatment visits and returned at treatment visits in order to expedite the execution of the study. […]

Structure (SMILES): CC(N)(Cc1ccc(O)cc1)C(=O)O (racemic) [L1-79, α-methyl-DL-tyrosine]
- changes from baseline EKGs ([1]; any of the patients): No clinically significant changes
- patients who developed crystalluria ([1]; patients on L1-79, placebo 30%): 50%
- VABS II Standardized Communication Score Mean Change from Baseline ([2]; DB 100 mg TID): 10.1
- VABS II Standardized Communication Score Treatment effect versus placebo ([2]; DB 100 mg TID): 3.6
- VABS II Standardized Communication Score change, median ([2]; DB 100 mg TID): −1, 5, 16
- VABS II Standardized Socialization Score Mean Change from Baseline ([2]; DB 100 mg TID): −4.2
- VABS II Standardized Socialization Score Treatment effect versus placebo ([2]; DB 100 mg TID): −5.0
- VABS II Standardized Socialization Score change, median ([2]; DB 100 mg TID): −13, −12, 9
- VABS II Standardized Communication Score Mean Change from Baseline ([2]; DB 200 mg TID): 2.7
- VABS II Standardized Communication Score Treatment effect versus placebo ([2]; DB 200 mg TID): −3.8
- VABS II Standardized Communication Score change, median ([2]; DB 200 mg TID): 0, 1, 3
- VABS II Standardized Socialization Score Mean Change from Baseline ([2]; DB 200 mg TID): 7.6
- VABS II Standardized Socialization Score Treatment effect versus placebo ([2]; DB 200 mg TID): 6.8
- VABS II Standardized Socialization Score change, median ([2]; DB 200 mg TID): 0, 1, 20
- adverse events reported ([3]; Example 4 patients): mild tiredness on the first day of dosing in two patients
- clinical improvements, onset and durability ([3]; Example 4 patients): begin quickly and are durable
- Adverse Events ([3]; patient 01-001, 90 TID): None
- Adverse Events ([3]; patient 01-002, 90 TID): None
- Adverse Events ([3]; patient 01-003, 90 TID): None
- RBS-R Compulsive Behavior Mean Change from Baseline ([4]; DB 100 mg TID): −1.2
- RBS-R Compulsive Behavior Treatment effect versus placebo ([4]; DB 100 mg TID): 0.3
- RBS-R Compulsive Behavior change, median ([4]; DB 100 mg TID): −2, 0, 1
- RBS-R Restricted Behavior Mean Change from Baseline ([4]; DB 100 mg TID): 1.3
- RBS-R Restricted Behavior Treatment effect versus placebo ([4]; DB 100 mg TID): 2.9
- RBS-R Restricted Behavior change, median ([4]; DB 100 mg TID): 0, 1, 1
- RBS-R Ritualistic Behavior Mean Change from Baseline ([4]; DB 100 mg TID): 0.1
- RBS-R Ritualistic Behavior Treatment effect versus placebo ([4]; DB 100 mg TID): 3.8
- RBS-R Ritualistic Behavior change, median ([4]; DB 100 mg TID): −1, 0, 2
- RBS-R Sameness Behavior Mean Change from Baseline ([4]; DB 100 mg TID): −0.7
- RBS-R Sameness Behavior Treatment effect versus placebo ([4]; DB 100 mg TID): 2.2
- RBS-R Sameness Behavior change, median ([4]; DB 100 mg TID): −1, −1, 0
- RBS-R Self Injurious Behavior Mean Change from Baseline ([4]; DB 100 mg TID): −2.2
- RBS-R Self Injurious Behavior Treatment effect versus placebo ([4]; DB 100 mg TID): −0.1
- RBS-R Self Injurious Behavior change, median ([4]; DB 100 mg TID): −2, 0, 0
- RBS-R Stereotypic Behavior Mean Change from Baseline ([4]; DB 100 mg TID): −0.6
- RBS-R Stereotypic Behavior Treatment effect versus placebo ([4]; DB 100 mg TID): −0.1
- RBS-R Stereotypic Behavior change, median ([4]; DB 100 mg TID): 0, 0, 0
- RBS-R Total Score Mean Change from Baseline ([4]; DB 100 mg TID): −3.2
- RBS-R Total Score Treatment effect versus placebo ([4]; DB 100 mg TID): 7.8
- RBS-R Total Score change, median ([4]; DB 100 mg TID): −6, −4, −1
- RBS-R Compulsive Behavior Mean Change from Baseline ([4]; DB 200 mg TID): −2.7
- RBS-R Compulsive Behavior Treatment effect versus placebo ([4]; DB 200 mg TID): −1.2
- RBS-R Compulsive Behavior change, median ([4]; DB 200 mg TID): −3, 0, 0
- RBS-R Restricted Behavior Mean Change from Baseline ([4]; DB 200 mg TID): −2.5
- RBS-R Restricted Behavior Treatment effect versus placebo ([4]; DB 200 mg TID): −1.0
- RBS-R Restricted Behavior change, median ([4]; DB 200 mg TID): −5, −1, 0
- RBS-R Ritualistic Behavior Mean Change from Baseline ([4]; DB 200 mg TID): −3.1
- RBS-R Ritualistic Behavior Treatment effect versus placebo ([4]; DB 200 mg TID): 0.6
- RBS-R Ritualistic Behavior change, median ([4]; DB 200 mg TID): −5, −1, 0
- RBS-R Sameness Behavior Mean Change from Baseline ([4]; DB 200 mg TID): 4.2
- RBS-R Sameness Behavior Treatment effect versus placebo ([4]; DB 200 mg TID): −1.3
- RBS-R Sameness Behavior change, median ([4]; DB 200 mg TID): −9, 0, 0
- RBS-R Self Injurious Behavior Mean Change from Baseline ([4]; DB 200 mg TID): −1.7
- RBS-R Self Injurious Behavior Treatment effect versus placebo ([4]; DB 200 mg TID): 0.4
- RBS-R Self Injurious Behavior change, median ([4]; DB 200 mg TID): −1, 0, 0
- RBS-R Stereotypic Behavior Mean Change from Baseline ([4]; DB 200 mg TID): −1.8
- RBS-R Stereotypic Behavior Treatment effect versus placebo ([4]; DB 200 mg TID): −1.4
- RBS-R Stereotypic Behavior change, median ([4]; DB 200 mg TID): −5, 0, 0
- RBS-R Total Score Mean Change from Baseline ([4]; DB 200 mg TID): −16.1
- RBS-R Total Score Treatment effect versus placebo ([4]; DB 200 mg TID): −5.1
- RBS-R Total Score change, median ([4]; DB 200 mg TID): −28, −2, 0
- RBS-R Total Score compared to placebo ([4]; L1-79 200 mg): mean improvements
- RBS-R Total Score responders (improvement or stabilization of symptoms) ([4]; L1-79 200 mg, placebo 78%): 91%
